According to US20250368633A1, “AZEPINE FUSED RING COMPOUND AS RIPK1 INHIBITOR AND USE THEREOF” (ARTIVILA BIOPHARMA, priority 2022, published 2025):

Columns and labels:
RIPK1 kinase = biological target: T1, RIPK1 kinase (Homo sapiens, UniProt Q13546); experiment: In vitro RIPK1 kinase activity assay (ADP-Glo), inhibition by compounds at 1 μM; assay type: biochemical; conditions: compound 1 μM; ATP 10 μM; MBP substrate 100 μg/mL; read-out: RIPK1 kinase activity inhibition rate range
T1 construct: purchased Promega VA7593
T1 sequence (Q13546 1-671): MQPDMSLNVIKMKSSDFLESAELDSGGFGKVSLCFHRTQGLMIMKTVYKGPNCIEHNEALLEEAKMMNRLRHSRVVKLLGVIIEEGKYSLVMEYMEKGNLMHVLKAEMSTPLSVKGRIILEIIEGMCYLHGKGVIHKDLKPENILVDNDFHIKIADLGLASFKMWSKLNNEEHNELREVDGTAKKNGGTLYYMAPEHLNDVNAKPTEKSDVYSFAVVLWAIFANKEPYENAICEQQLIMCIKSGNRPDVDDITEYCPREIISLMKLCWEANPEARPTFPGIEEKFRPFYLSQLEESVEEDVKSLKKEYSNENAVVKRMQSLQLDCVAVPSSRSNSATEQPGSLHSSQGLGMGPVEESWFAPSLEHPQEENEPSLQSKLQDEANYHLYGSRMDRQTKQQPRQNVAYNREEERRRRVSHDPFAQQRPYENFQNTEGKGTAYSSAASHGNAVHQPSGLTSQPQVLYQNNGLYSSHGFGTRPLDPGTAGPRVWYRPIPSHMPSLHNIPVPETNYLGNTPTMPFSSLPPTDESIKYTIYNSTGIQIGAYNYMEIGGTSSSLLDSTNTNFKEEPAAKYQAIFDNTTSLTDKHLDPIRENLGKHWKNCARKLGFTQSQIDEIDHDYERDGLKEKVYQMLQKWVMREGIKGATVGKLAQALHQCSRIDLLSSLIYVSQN
In short: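 Compound and RIPK1 were preincubated 15 min at room temperature, then reacted 1 h with 10 μM ATP and 100 μg/mL MBP substrate in kinase buffer D. ADP formed was measured by ADP-Glo luminescence and converted to percent inhibition of kinase activity.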

U937 cells = experiment: Inhibition rate of compound (1 μM) on necroptosis of U937 cells (TSZ-induced, CellTiter-Glo); assay type: cell-based; conditions: TSZ (hTNF-α, SM-164, Z-VAD-FMK) 20 hours
In short: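 U937 cells were pretreated 15 min with compound, then necroptosis was triggered with TSZ (Z-VAD-FMK, hTNF-α, SM-164) for 20 h at 37° C. Viability was read as ATP by CellTiter-Glo luminescence, and inhibition (%) was taken relative to no-TSZ and TSZ-only wells.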

inhibition at 1 µM (RIPK1 kinase) [%] | Structure (SMILES) | Inhibition rate range of compounds (1 μM) on U937 cell necroptosis (U937 cells)
50 to 74 | CN1C(=O)[C@@H](NC(=O)C(=O)NCCc2cccc(F)c2)COc2ccc(C#CCN3CCNC(=O)C3)cc21 [Example 123, (S)—N^1-(3-fluorophenethyl)-N^2-(5-methyl-4-oxo-7-(3-(3-oxopiperazin-1-yl)prop-1-yn-1-yl)-2,3,4,5-tetrahydrobenzo[b][1,4]oxazepin-3-yl)oxalamide] | B (B: 50-89%)
≥ 75 | C[C@@H](NC(=O)C(=O)N[C@H]1COc2ccc(C#CCN3CC[C@@H](O)C3)cc2N(C)C1=O)c1ccccc1 [Example 128, N^1-((S)-7-(3-((R)-3-hydroxypyrrolidin-1-yl)prop-1-yn-1-yl)-5-methyl-4-oxo-2,3,4,5-tetrahydrobenzo[b][1,4]oxazepin-3-yl)-N^2-((R)-1-phenylethyl)oxalamide] | B (B: 50-89%)
≥ 75 | C[C@@H](NC(=O)C(=O)N[C@H]1COc2ccc(C#CCN3CC[C@H](O)C3)cc2N(C)C1=O)c1ccccc1 [Example 130, N^1-((S)-7-(3-((S)-3-hydroxypyrrolidin-1-yl)prop-1-yn-1-yl)-5-methyl-4-oxo-2,3,4,5-tetrahydrobenzo[b][1,4]oxazepin-3-yl)-N^2-((R)-1-phenylethyl)oxalamide] | A (A: ≥90%)
50 to 74 | C[C@@H](NC(=O)C(=O)N[C@H]1COc2ccc(C#CC3(O)COC3)cc2N(C)C1=O)c1ccccc1 [Example 132, N^1-((S)-7-((3-hydroxyoxetan-3-yl)ethynyl)-5-methyl-4-oxo-2,3,4,5-tetrahydrobenzo[b][1,4]oxazepin-3-yl)-N^2-((R)-1-phenylethyl)oxalamide] | A (A: ≥90%)
≥ 75 | C[C@@H](NC(=O)C(=O)N[C@H]1COc2ccc(C#CC3CCN(CC#N)CC3)cc2N(C)C1=O)c1ccccc1 [Example 137, N^1-((S)-7-((1-(cyanomethyl)piperidin-4-yl)ethynyl)-5-methyl-4-oxo-2,3,4,5-tetrahydrobenzo[b][1, 4]oxazepin-3-yl)-N^2-((R)-1-phenylethyl)oxalamide] | A (A: ≥90%)
≥ 75 | C[C@@H](NC(=O)C(=O)N[C@H]1COc2ccc(C#CCN3CCC(O)CC3)cc2N(C)C1=O)c1ccccc1 [Example 138, N^1-((S)-7-(3-(4-hydroxypiperidin-1-yl)prop-1-yn-1-yl)-5-methyl-4-oxo-2,3,4,5-tetrahydrobenzo[b][1,4]oxazepin-3-yl)-N^2-((R)-1-phenylethyl)oxalamide] | A (A: ≥90%)
≥ 75 | C[C@@H](NC(=O)C(=O)N[C@H]1COc2ccc(C#CCN3CCC(=O)CC3)cc2N(C)C1=O)c1ccccc1 [Example 139, N^1-((S)-5-methyl-4-oxo-7-(3-(4-oxopiperidin-1-yl)prop-1-yn-1-yl)-2,3,4,5-tetrahydrobenzo[b][1, 4]oxazepin-3-yl)-N^2-((R)-1-phenylethyl)oxalamide] | B (B: 50-89%)
≥ 75 | C[C@@H](NC(=O)C(=O)N[C@H]1COc2ccc(C#CCN3CCOCC3)cc2N(C)C1=O)c1ccccc1 [Example 140, N^1-((S)-5-methyl-7-(3-morpholinoprop-1-yn-1-yl)-4-oxo-2,3,4,5-tetrahydrobenzo[b][1,4]oxazepin-3-yl)-N^2-((R)-1-phenylethyl)oxalamide] | A (A: ≥90%)
≥ 75 | C[C@@H](NC(=O)C(=O)N[C@H]1COc2ccc(C#CCN3C(=O)CCC3=O)cc2N(C)C1=O)c1ccccc1 [Example 144, N^1-((S)-7-(3-(2,5-dioxopyrrolidin-1-yl)prop-1-yn-1-yl)-5-methyl-4-oxo-2,3,4,5-tetrahydrobenzo[b][1,4]oxazepin-3-yl)-N^2-((R)-1-phenylethyl)oxalamide] | A (A: ≥90%)
≥ 75 | C[C@@H](NC(=O)C(=O)N[C@H]1COc2ccc(C#CCN3CCNC(=O)C3)cc2N(C)C1=O)c1ccccc1 [Example 145, N^1-((S)-5-methyl-4-oxo-7-(3-(3-oxopiperazin-1-yl)prop-1-yn-1-yl)-2,3,4,5-tetrahydrobenzo[b][1, 4]oxazepin-3-yl)-N^2-((R)-1-phenylethyl)oxalamide] | A (A: ≥90%)
50 to 74 | C[C@@H](NC(=O)C(=O)N[C@H]1COc2ccc(C#CCN(C)C)cc2N(C)C1=O)c1ccccc1 [Example 146, N^1-((S)-7-(3-(dimethylamino)prop-1-yn-1-yl)-5-methyl-4-oxo-2,3,4,5-tetrahydrobenzo[b][1,4]oxazepin-3-yl)-N^2-((R)-1-phenylethyl)oxalamide] | A (A: ≥90%)
≥ 75 | C[C@@H](NC(=O)C(=O)N[C@H]1COc2ccc(C#CC3CN(CC#N)C3)cc2N(C)C1=O)c1ccccc1 [Example 148, N^1-((S)-7-((1-(cyanomethyl)azetidin-3-yl)ethynyl)-5-methyl-4-oxo-2,3,4,5-tetrahydrobenzo[b][1, 4]oxazepin-3-yl)-N^2-((R)-1-phenylethyl)oxalamide] | A (A: ≥90%)
≥ 75 | C[C@@H](CNC(=O)C(=O)N[C@H]1COc2ccc(C#CCCO)cc2N(C)C1=O)c1ccccc1 [Example 155, N^1-((S)-7-(4-hydroxybut-1-yn-1-yl)-5-methyl-4-oxo-2,3,4,5-tetrahydrobenzo[b][1,4]oxazepin-3-yl)-N^2-((R)-2-phenylpropyl)oxalamide] | A (A: ≥90%)
50 to 74 | C[C@H](CNC(=O)C(=O)N[C@H]1COc2ccc(C#CCCO)cc2N(C)C1=O)c1ccccc1 [Example 156, N^1-((S)-7-(4-hydroxybut-1-yn-1-yl)-5-methyl-4-oxo-2,3,4,5-tetrahydrobenzo[b][1,4]oxazepin-3-yl)-N^2-((S)-2-phenylpropyl)oxalamide] | A (A: ≥90%)
≥ 75 | C[C@@H](CNC(=O)C(=O)N[C@H]1COc2ccc(C#CC3(O)COC3)cc2N(C)C1=O)c1ccccc1 [Example 158, N^1-((S)-7-((3-hydroxyoxetan-3-yl)ethynyl)-5-methyl-4-oxo-2,3,4,5-tetrahydrobenzo[b][1,4]oxazepin-3-yl)-N^2-((R)-2-phenylpropyl)oxalamide] | A (A: ≥90%)
≥ 75 | C[C@@H](CNC(=O)C(=O)N[C@H]1COc2ccc(C#CCN3CCOCC3)cc2N(C)C1=O)c1ccccc1 [Example 159, N^1-((S)-5-methyl-7-(3-morpholinoprop-1-yn-1-yl)-4-oxo-2,3,4,5-tetrahydrobenzo[b][1,4]oxazepin-3-yl)-N^2-((R)-2-phenylpropyl)oxalamide] | A (A: ≥90%)
≥ 75 | CN1C(=O)C(NC(=O)C(=O)NCCc2cccc(F)c2)CCc2ccc(C#CCCO)cc21 (stereo not shown) [Example 167, N^1-(3-fluorophenethyl)-N^2-(8-(4-hydroxybut-1-yn-1-yl)-1-methyl-2-oxo-2,3,4,5-tetrahydro-1H-benzo[b]azepin-3-yl)oxalamide] | A (A: ≥90%)
